According to patent US10239933B2, “Compositions and methods for modulating thrombin generation” (The Children's Hospital of Philadelphia, priority 2011, dated 2019):
Entries after “also recorded” stand apart in the source; their conditions may differ. Like-named read-outs stand apart in the source and are kept apart here. Ends that are not written are not given here. * marks the point of attachment. X2 = CN(c1ccccc1)c1ccc2c(-c3ccccc3S(=O)(=O)N3CCC(C(=O)NCCCCCN4C(=O)CC(*)C4=O)CC3)c3ccc(=[N+](C)c4ccccc4)cc-3oc2c1; X1 = O=C1OC2(c3cc(F)c(O)cc3Oc3cc(O)c(F)cc32)c2ccc(N3C(=O)CC(*)C3=O)cc21

Tests used:
[1] = molecular target: T1, FV-810 (Homo sapiens, UniProt P12259, DEL839-1519); assay: Analytical ultracentrifugation (sedimentation velocity) of QSY7-BR with FV-810; type: binding
T1 construct: amino acids 1-28 are a signal peptide that is cleaved and numbering begins at residue 29; made in house
Procedure: Analytical ultracentrifugation of QSY7 C5-maleimide-modified BR (QSY7-BR) was performed in a Beckman Optima XL-I analytical ultracentrifuge using absorbance optics. Sedimentation velocity was measured at 25,000 or 45,000 rpm with two-sector cells in an An-60 Ti rotor at 20° C. Sedimentation of QSY7-BR was followed measuring absorbance at 560 nm in cells containing 5 μM QSY7-BR alone or with 7 μM FV-810 or rFVa in 20 mM HEPES, 150 mM NaCl, and 2 mM CaCl2, pH 7.4. Sedimentation coefficients and molecular weights were determined by g(s*) analysis performed using DCDT+ (Philo, J. S. (2000) Anal. Biochem., 279:151-163).

[2] = molecular target: T2, rFVa (Homo sapiens, UniProt P12259); assay: Fluorescence anisotropy, direct binding of OG488-BR to rFVa; conditions: fluorescently labeled BR peptide, rFVa titrated
T2 construct: thrombin rapidly cleaves Factor V at Arg709 to produce heavy chain (HC); rapidly cleaves at Arg1018 and Arg1545 to produce light chain (LC); made in house
T2 sequence (P12259 29-737 limits assumed): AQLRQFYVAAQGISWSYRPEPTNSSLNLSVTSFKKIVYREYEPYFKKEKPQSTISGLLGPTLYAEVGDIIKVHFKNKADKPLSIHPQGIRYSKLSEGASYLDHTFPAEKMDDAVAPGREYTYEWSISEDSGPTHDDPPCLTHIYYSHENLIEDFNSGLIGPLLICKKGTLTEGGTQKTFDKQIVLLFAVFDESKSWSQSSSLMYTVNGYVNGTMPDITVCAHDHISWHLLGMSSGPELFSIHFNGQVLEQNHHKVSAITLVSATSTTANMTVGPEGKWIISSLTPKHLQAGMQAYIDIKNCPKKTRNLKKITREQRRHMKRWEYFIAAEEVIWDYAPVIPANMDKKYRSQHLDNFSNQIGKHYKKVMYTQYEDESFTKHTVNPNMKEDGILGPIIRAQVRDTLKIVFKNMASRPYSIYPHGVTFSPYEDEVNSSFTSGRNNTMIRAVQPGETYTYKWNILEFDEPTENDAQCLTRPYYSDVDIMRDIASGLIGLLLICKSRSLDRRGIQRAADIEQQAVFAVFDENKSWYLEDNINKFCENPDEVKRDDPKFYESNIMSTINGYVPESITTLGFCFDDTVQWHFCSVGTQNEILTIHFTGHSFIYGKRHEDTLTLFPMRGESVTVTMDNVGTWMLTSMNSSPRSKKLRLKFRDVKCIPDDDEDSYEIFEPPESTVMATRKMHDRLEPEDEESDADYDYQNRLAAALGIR
T2 sequence (P12259 1574-2224 limits assumed): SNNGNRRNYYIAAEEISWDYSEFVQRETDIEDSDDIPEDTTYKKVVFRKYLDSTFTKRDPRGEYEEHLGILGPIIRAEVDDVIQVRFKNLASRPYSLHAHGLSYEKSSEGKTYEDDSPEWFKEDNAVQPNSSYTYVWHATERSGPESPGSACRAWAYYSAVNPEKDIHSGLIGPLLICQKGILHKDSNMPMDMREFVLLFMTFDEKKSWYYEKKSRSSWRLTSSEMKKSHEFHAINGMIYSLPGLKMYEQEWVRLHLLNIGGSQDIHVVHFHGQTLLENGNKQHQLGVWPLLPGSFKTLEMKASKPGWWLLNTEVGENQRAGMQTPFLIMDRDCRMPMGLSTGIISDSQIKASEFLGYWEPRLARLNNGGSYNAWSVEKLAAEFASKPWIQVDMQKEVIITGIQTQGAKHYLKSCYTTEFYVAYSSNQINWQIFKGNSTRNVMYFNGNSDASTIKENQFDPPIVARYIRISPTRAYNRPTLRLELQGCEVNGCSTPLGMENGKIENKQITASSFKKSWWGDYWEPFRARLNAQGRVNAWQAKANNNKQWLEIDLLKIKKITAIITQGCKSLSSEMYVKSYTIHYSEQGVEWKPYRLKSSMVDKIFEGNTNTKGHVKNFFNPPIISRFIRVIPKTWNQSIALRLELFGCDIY

[3] = molecular target: T3, FV-810^R709Q (Homo sapiens, UniProt P12259, DEL839-1519/R737Q); assay: Fluorescence anisotropy, binding of OG488-BR to FV-810^R709Q; conditions: after incubation with thrombin
T3 construct: amino acids 1-28 are a signal peptide that is cleaved and numbering begins at residue 29; made in house

[4] = molecular target: T4, FV-810^QQ (Homo sapiens, UniProt P12259, DEL839-1519/R1573Q/R737Q); assay: Fluorescence anisotropy, binding of OG488-BR to FV-810^QQ; conditions: after incubation with thrombin
T4 construct: amino acids 1-28 are a signal peptide that is cleaved and numbering begins at residue 29; made in house

[5] = molecular target: T1, FV-810; assay: Fluorescence anisotropy, direct binding of OG488-BR to FV-810
[6] = molecular target: T5, FV-810^R1545Q (Homo sapiens, UniProt P12259, DEL839-1519/R1573Q); assay: Fluorescence anisotropy, binding of OG488-BR to FV-810^R1545Q
T5 construct: amino acids 1-28 are a signal peptide that is cleaved and numbering begins at residue 29; made in house

[7] = molecular target: T1, FV-810; assay: Displacement of OG488-BR from preformed OG488-BR/FV-810 complex (fluorescence anisotropy); type: binding
[8] = molecular target: T1, FV-810; assay: Clotting assay, FV-deficient plasma supplemented with FV-810 (FV-DT); type: biochemical; conditions: FV-deficient plasma; FIG. 8A: 0.25 nM FV-810, peptides at 5 μM
Procedure: (§1) Residual clotting activity of Factor V variants was determined by prothrombin time-based clotting assays. Factor V variants were incubated with either the FVBR or s46 peptide, after which the mixtures were mixed with Factor V deficient plasma and clotting times were measured. Where indicated, the Factor V variants were activated by pre-incubation with thrombin prior to addition of the peptides.
(§2) FV derivatives (500 nM) were prepared in assay buffer. Where noted, FV derivatives were pretreated with 10 nM thrombin for 15 minutes at 37° C., followed by the addition of 15 nM hirudin. Samples were diluted to 0.25 nM in assay buffer with 0.1% BSA, and the specific clotting activity was measured in FV-deficient plasma (George King Bio-Medical, Overland Park, Kans.) with TriniCLOT PT Excel (Tcoag, Wicklow, Ireland) as described (Camire et al. (1998) Biochemistry 37:11896-11906). The data are presented as the means±S.D.

[9] = molecular target: T6, FXa/FV-DT (Homo sapiens, UniProt P12259, DEL839-1519); assay: Prothrombin activation assay, prothrombinase containing FV-810 (FV-DT); type: biochemical; conditions: peptide titrated; 1.4 μM prothrombin, 50 μM PCPS, 25° C.
T6 construct: amino acids 1-28 are a signal peptide that is cleaved and numbering begins at residue 29; made in house
Procedure: Steady-state initial velocities of prothrombin cleavage were determined discontinuously at 25° C. by measuring the initial rate of thrombin formation. Reaction mixtures contained liposomes (75:25, PC:PS), prothrombin, the indicated Factor V variants, and the Factor V peptides FVBR or s46. The reactions were initiated by adding Factor Xa, and thrombin generation was determined at multiple time points by monitoring the cleavage of the chromogenic thrombin substrate S-2238.
Steady-state initial velocities of prothrombin cleavage were determined discontinuously at 25° C. as described (Camire, R. M. (2002) J. Biol. Chem., 277:37863-37870). Reaction mixtures containing PCPS (50 μM), DAPA (3 μM), prothrombin (1.4 μM), and either rFVa or the indicated FV-810 derivatives were incubated with B-domain peptides (0-10 μM) in assay buffer. […] Prothrombin activation was determined using the chromogenic thrombin substrate 52238 as described (Camire, R. M. (2002) J. Biol. Chem., 277:37863-37870).

[10] = molecular target: T7, FVDT (Homo sapiens, UniProt P12259, DEL839-1519); assay: Direct binding of TFPI to FVDT (FIG. 7C)
T7 construct: amino acids 1-28 are a signal peptide that is cleaved and numbering begins at residue 29; made in house

[11] = molecular target: T7, FVDT; assay: Inhibition of FVDT by the FVBR or TFPI peptide (FIG. 7B); type: biochemical
[12] = molecular target: T2, rFVa; assay: Clotting assay, FV-deficient plasma supplemented with rFVa; type: biochemical; conditions: FIG. 8B: 0.25 nM rFVa, peptides at 5 μM
Procedure: as §1, §2

T1 sequence (P12259 with tags, fused parts or gaps DEL839-1519): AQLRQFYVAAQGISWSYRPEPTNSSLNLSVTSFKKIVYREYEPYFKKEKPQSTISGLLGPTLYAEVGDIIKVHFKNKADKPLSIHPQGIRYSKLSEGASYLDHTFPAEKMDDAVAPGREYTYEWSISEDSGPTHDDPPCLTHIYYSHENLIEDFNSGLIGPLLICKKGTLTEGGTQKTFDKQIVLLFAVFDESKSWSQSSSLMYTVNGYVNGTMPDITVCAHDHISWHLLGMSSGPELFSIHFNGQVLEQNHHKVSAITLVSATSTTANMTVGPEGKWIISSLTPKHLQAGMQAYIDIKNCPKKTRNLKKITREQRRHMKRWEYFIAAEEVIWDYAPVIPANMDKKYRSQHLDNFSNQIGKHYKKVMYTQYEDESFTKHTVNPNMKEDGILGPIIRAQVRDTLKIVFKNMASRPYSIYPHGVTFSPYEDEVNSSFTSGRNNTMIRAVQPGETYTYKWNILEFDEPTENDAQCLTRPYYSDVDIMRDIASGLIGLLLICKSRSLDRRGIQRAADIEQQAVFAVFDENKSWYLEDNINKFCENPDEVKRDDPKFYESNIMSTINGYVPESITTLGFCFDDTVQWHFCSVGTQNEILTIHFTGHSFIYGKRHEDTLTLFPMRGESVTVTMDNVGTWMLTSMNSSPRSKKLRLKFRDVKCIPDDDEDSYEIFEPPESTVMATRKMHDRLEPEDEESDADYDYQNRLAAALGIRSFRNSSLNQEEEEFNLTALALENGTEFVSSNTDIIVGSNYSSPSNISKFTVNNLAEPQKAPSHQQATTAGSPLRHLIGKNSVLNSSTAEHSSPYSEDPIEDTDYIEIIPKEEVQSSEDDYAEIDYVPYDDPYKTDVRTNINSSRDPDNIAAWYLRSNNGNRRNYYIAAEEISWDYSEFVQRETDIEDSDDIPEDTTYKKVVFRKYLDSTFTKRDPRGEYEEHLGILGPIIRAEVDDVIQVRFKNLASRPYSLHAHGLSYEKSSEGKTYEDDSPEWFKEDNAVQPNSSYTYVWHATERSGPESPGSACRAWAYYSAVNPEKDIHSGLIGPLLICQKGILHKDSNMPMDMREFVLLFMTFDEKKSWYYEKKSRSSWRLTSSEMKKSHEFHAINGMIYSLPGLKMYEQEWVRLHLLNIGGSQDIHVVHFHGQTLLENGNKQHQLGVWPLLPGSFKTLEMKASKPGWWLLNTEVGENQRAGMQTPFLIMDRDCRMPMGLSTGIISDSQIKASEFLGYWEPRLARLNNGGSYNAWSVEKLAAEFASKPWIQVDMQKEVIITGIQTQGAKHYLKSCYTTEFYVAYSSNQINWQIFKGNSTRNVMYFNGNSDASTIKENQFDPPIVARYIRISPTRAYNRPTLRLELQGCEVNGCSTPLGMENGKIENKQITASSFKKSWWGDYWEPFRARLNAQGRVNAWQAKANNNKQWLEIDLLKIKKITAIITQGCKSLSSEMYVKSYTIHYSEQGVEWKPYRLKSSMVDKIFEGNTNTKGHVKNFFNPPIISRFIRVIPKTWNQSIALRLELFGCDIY
T3 sequence (P12259 with tags, fused parts or gaps R737Q/DEL839-1519): as the sequence (P12259 with tags, fused parts or gaps DEL839-1519) above, with R709Q counted along it
T5 sequence (P12259 with tags, fused parts or gaps DEL839-1519/R1573Q): as the sequence (P12259 with tags, fused parts or gaps DEL839-1519) above, with R864Q counted along it
T7 sequence (P12259 with tags, fused parts or gaps DEL839-1519): as the sequence (P12259 with tags, fused parts or gaps DEL839-1519) above
T4 sequence (P12259 with tags, fused parts or gaps R737Q/DEL839-1519/R1573Q): as the sequence (P12259 with tags, fused parts or gaps DEL839-1519) above, with R709Q, R864Q counted along it
T6 sequence (P12259 with tags, fused parts or gaps DEL839-1519): as the sequence (P12259 with tags, fused parts or gaps DEL839-1519) above

“H-C(X2)SRAWGESTPLANKPGKQSGHPKFPRVRHKSLQVRQDGGKSRLKKSQFLIKTRKKKKEK-OH [QSY7-BR]” was tested, and the sedimentation coefficient (s^020,w) ([1]; 5 μM QSY7-BR alone, absence of FV-810) was 0.98 S (Svedberg) and the sedimentation coefficient ([1]; 5 μM QSY7-BR in the presence of 7 μM FV-810) was 9.8 S (Svedberg).

With “H-C(X1)SRAWGESTPLANKPGKQSGHPKFPRVRHKSLQVRQDGGKSRLKKSQFLIKTRKKKKEK-OH [OG488-BR]” the “binding to rFVa/FVa” value [2] was “no detectable binding”, the “binding of OG488-BR to thrombin-cleaved FV-810^R709Q” value [3] was “did not; also recorded: neither FV-810 nor FV-810^R709Q had detectable binding” and the “Kd, OG488-BR binding to thrombin-treated FV-810^QQ” value [4] was “still bound”. For the same molecule, the “binding of OG488-BR to FV-810 with EDTA” value ([5]; 10 mM EDTA added to the buffer) was “no binding was observed”, the “stoichiometry n at saturation” value ([5]; 20 or 40 nM OG488-BR, 50 μM PCPS, 25° C.) was 1.27±0.02 mol of FV-810/mol of OG488-BR and the Kd ([5]; FV-810 pretreated with buffer, 30 nM OG488-BR, 50 μM PCPS, assuming n=1) was 2.1 ± 0.3 nM. For the same molecule, the Kd ([5]; FV-810 titrated into 20 or 40 nM OG488-BR, 50 μM PCPS, 25° C.) was 2.07 ± 0.2 nM, the “binding of OG488-BR to thrombin-cleaved FV-810” value ([5]; after incubation with thrombin) was “did not; also recorded: neither FV-810 nor FV-810^R709Q had detectable binding” and the Kd ([6]; after incubation with thrombin, read-out: Kd, OG488-BR binding to thrombin-cleaved FV-810^R1545Q) was 30 nM. The Kd ([6]; pretreated with buffer, assuming n=1, read-out: Kd, OG488-BR binding to FV-810^R1545Q) was 2 nM.

With “bovine BR: Bos taurus FV basic region Ser938-Lys996 (SRTWGENIPFKNSHGKQSGHPTFLVTRRKPLQDRQDRRNSRLKEGLPLIRTRRKKKEEK)” the Kd ([7]; 30 nM OG488-BR, 20 nM FV-810, 50 μM PCPS, 25° C., assuming stoichiometry of 1 mol of FV-810/mol of BR peptide) was 28.3 ± 0.6 nM, the “weaker binding to FV-810 than the human BR” value ([7]; displacement binding experiments) was ~10 fold and the “inhibition of clotting activity of FV-810 (FV-DT)” value (“inhibition … of FV-810 (FV-DT)” for short) [8] was “inhibited”. For the same molecule, the “inhibition of prothrombin activation with FV-810 (FV-DT)” value [9] was “inhibited”.

With “platelet factor 4: cationic platelet factor 4 [reference compound]” the “inhibition … of FV-810 (FV-DT)” value [8] was “neither low molecular weight poly-L-lysine (average Mr=1000-5000) (FIG. 8A) nor the cationic platelet factor 4 affected FV-810 activity”.

With “acetylated BR peptide: BR peptide acetylated at all Lys residues and the N terminus (Ac-SRAWGESTPLANK(Ac)PGK(Ac)QSGHPK(Ac)FPRVRHK(Ac)SLQVRQDGGK(Ac)SRLK(Ac)K(Ac)SQFLIK(Ac)TRK(Ac)K(Ac)K(Ac)K(Ac)EK(Ac))” the “inhibition … of FV-810 (FV-DT)” value [8] was “no longer inhibited”.

In the case of poly-L-lysine [reference compound], the “inhibition … of FV-810 (FV-DT)” value [8] is reported as “neither low molecular weight poly-L-lysine (average Mr=1000-5000) (FIG. 8A) nor the cationic platelet factor 4 affected FV-810 activity”.

In the case of “TFPI peptide: C-terminal tail peptide of tissue factor pathway inhibitor (amino acids 240-265, SEQ ID NO: 4) (KKGFIQRISKGGLIKTKRKRKKQRVK; peptide from human tissue factor pathway inhibitor)”, the “direct binding to FVDT” value [10] is reported as “directly bound” and the “inhibition of FVDT” value [11] is reported as “inhibited FVBT in a manner similar to FVBR”.

B1: BR+AR peptide: FV residues 968-1007 and 1492-1538, juxtaposed BR and AR sequences from FV-B104 (peptide)
peptide: SGHPKFPRVRHKSLQVRQDGGKSRLKKSQFLIKTRKKKKETDYIEIIPKEEVQSSEDDYAEIDYVPYDDPYKTDVRTNINSSRDPDN
For B1, the “inhibition of clotting activity of rFVa/FVa” value [12] was “not inhibited”.
